From patent US10000474B2, “Histone deacetylase inhibitors and uses thereof” (MUSC FOUNDATION FOR RESEARCH DEVELOPMENT, priority 2014, dated 2018)
Where a name gives a salt, the structure may show the parent alone.

Tests used:
Assay type in all cases: biochemical
Settings in all cases: test concentration not given; average of triplicate
Recombinant human HDAC7 = molecular target: T1, Recombinant human HDAC7 (Homo sapiens, UniProt Q8WUI4); experiment: HDAC inhibitory assay, HDAC7 (Boc-Lys(Tfa)-AMC substrate)
T1 construct: purchased Millipore
T1 sequence (Q8WUI4 1-952): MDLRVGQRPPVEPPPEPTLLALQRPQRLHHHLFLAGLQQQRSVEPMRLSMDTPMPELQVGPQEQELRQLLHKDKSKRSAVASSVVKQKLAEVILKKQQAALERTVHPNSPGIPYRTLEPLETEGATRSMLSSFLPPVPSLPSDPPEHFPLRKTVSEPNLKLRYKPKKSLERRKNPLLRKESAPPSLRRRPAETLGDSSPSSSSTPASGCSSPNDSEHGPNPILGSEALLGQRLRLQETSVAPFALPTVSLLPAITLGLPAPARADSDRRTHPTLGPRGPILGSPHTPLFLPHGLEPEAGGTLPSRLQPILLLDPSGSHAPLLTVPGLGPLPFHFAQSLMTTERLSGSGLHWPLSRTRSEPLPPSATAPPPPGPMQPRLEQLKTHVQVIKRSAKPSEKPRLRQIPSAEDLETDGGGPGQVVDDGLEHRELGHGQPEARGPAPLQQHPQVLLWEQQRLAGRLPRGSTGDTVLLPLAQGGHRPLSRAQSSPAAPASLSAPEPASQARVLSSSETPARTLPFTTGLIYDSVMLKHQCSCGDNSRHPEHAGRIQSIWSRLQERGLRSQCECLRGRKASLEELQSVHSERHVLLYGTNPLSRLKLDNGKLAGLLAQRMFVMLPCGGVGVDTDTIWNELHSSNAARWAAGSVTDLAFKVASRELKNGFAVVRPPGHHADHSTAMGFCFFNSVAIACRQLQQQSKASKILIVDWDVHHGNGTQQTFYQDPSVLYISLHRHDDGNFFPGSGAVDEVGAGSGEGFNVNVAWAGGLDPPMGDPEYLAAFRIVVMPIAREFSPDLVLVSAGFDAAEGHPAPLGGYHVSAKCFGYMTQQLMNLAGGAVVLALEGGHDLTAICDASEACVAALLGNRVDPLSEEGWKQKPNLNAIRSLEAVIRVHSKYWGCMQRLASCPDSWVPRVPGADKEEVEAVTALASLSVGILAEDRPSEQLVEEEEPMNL
Description: (§1) The compounds of Examples 1-12 and 14-16 were evaluated for their ability to act as inhibitors of human HDAC. The compound of Example 13 was not tested. Recombinant human HDAC1, HDAC2, HDAC3/NcoR2, HDAC5, HDAC6, HDAC8, HDAC9, HDAC10 and HDAC11 were purchased from BPS Biosciences. Recombinant human HDAC4 and HDAC7 were purchased from Millipore. The substrate Boc-Lys(Ac)-AMC and Boc-Lys(Tfa)-AMC were purchased from Bachem. The substrate Ac-RHK(Ac)K(Ac)-AMC was purchased from Enzo Life Sciences. Due to the different specific activities of each isoform, different amount of enzyme was used in each isoform screening assay. In these assays, trichostatin A (TSA), suberanilohydroxamic acid and diphenylacetohydroxamic acid (DPAHA) were employed as positive controls. All determinations were carried out in triplicate, and reported values were the average of these determinations, which in no case varied by more than 5%.
(§2) For evaluating the inhibition of class IIa HDACs (HDAC4, HDAC5, HDAC7 and HDAC9) and class IV HDAC (HDAC11), 10 μl of test samples were first incubated with 1 ng HDAC4 (specific activity=15400 pmol/min/μg), 5 ng HDAC5 (specific activity=2521 pmol/min/μg), 1 ng HDAC7 (specific activity=26340 pmol/min/μg), 5 ng HDAC9 (specific activity=3000 pmol/min/μg), and 500 ng HDAC11 (specific activity=1.8 pmol/min/μg) respectively. Then 25 μl of the Boc-Lys(Tfa)-AMC substrate (50 μM final concentration) was added and incubated at 37° C. for 30-60 min, and followed by adding 50 μl of developer. The last step was to read the samples in a SpectraMax M5 plate reader (Molecular Devices) at an excitation wavelength of 360 nm and an emission wavelength of 460 nm.

[1] = molecular target: T2, Recombinant human HDAC3/NcoR2 (Homo sapiens, UniProt O15379); experiment: HDAC inhibitory assay, HDAC3 (Boc-Lys(Ac)-AMC substrate)
T2 construct: purchased BPS Biosciences
T2 sequence (O15379 whole entry): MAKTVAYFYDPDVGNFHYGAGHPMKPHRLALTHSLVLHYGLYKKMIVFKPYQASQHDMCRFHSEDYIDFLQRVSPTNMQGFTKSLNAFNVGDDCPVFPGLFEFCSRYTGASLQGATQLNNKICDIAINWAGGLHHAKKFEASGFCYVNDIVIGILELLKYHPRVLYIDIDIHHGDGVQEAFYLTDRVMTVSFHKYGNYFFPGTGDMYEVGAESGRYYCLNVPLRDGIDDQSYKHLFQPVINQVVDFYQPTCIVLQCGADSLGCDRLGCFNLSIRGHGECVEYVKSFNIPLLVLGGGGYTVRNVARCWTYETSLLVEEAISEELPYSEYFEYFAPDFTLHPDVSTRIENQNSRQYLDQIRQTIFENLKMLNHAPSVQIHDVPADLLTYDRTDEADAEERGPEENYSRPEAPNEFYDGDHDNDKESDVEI
T2 sequence (Q9Y618 395-489 partner limits assumed): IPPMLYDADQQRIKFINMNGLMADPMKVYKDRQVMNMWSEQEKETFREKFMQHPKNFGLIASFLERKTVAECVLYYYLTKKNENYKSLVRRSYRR
Description: as §1
(§3) Then 25 μl of the Boc-Lys(Ac)-AMC substrate (50 μM final concentration) was added and incubated at 37° C. for 30-60 min, and followed by adding 50 μl of developer (1 mg/ml trypsin and 1 μM TSA). The last step was reading the samples in a SpectraMax M5 plate reader (Molecular Devices) at an excitation wavelength of 360 nm and an emission wavelength of 460 nm.

Recombinant human HDAC1 = molecular target: T3, Recombinant human HDAC1 (Homo sapiens, UniProt Q13547); experiment: HDAC inhibitory assay, HDAC1 (Boc-Lys(Ac)-AMC substrate)
T3 construct: purchased BPS Biosciences
T3 sequence (Q13547 whole entry): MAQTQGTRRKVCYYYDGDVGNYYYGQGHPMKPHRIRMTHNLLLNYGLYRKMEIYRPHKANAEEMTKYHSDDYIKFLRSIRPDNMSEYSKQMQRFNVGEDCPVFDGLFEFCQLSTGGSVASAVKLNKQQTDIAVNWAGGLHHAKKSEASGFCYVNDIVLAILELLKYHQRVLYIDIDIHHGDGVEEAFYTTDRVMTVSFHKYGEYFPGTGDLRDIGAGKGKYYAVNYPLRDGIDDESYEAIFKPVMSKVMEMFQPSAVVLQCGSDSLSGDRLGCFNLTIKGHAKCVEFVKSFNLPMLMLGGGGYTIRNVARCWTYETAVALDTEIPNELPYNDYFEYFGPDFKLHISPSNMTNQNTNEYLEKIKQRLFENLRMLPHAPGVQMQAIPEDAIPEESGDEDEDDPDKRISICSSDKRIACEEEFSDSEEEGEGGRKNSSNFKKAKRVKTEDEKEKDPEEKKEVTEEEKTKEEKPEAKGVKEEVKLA
Description: as §1, §3

Recombinant human HDAC5 = molecular target: T4, Recombinant human HDAC5 (Homo sapiens, UniProt Q9UQL6); experiment: HDAC inhibitory assay, HDAC5 (Boc-Lys(Tfa)-AMC substrate)
T4 construct: purchased BPS Biosciences
T4 sequence (Q9UQL6 whole entry): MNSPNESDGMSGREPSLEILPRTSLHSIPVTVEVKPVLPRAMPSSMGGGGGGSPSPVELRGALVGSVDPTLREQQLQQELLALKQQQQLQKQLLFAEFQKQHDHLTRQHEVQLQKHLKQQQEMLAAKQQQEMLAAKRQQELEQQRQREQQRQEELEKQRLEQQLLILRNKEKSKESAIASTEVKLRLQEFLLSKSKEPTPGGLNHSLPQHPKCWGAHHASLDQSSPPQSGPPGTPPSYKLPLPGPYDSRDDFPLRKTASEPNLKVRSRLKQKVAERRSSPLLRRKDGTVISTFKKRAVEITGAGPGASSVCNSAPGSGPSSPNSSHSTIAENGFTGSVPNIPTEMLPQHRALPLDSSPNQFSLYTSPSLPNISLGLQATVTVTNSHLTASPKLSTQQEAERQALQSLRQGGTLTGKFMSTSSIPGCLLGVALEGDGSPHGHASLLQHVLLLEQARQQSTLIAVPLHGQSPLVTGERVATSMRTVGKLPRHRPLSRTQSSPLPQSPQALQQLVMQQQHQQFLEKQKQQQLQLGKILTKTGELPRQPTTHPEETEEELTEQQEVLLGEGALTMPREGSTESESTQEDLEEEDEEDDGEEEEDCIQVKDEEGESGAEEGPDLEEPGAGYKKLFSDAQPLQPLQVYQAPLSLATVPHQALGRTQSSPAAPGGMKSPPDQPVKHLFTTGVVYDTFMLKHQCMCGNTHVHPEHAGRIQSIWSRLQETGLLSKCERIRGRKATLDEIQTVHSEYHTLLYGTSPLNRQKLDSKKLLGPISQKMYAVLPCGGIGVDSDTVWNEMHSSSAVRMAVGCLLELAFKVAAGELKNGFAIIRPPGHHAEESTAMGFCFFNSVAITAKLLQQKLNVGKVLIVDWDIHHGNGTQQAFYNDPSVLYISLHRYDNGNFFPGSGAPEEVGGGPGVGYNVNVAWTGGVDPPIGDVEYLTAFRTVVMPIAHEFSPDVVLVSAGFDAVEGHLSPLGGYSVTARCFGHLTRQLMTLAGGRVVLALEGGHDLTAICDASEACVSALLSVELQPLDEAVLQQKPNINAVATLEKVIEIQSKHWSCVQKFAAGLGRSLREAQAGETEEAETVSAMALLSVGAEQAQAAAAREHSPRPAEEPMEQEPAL
Description: as §1, §2

Compound | HDAC 7 inhibitory activity (Recombinant human HDAC7) [%] | HDAC 3 inhibitory activity [1] [%] | HDAC 1 inhibitory activity (Recombinant human HDAC1) [%] | HDAC 5 inhibitory activity (Recombinant human HDAC5) [%]
O=C(Nc1ccccc1)c1coc(-c2ccccc2O)n1 [Example 1, 2-(2-Hydroxyphenyl)-N-phenyloxazole-4-carboxamide] | 1.3 | 22.5 | 62.5 | 9.3
O=C(Nc1ccc(-c2ccccc2)cc1)c1coc(-c2ccccc2O)n1 [Example 5, N-([1,1′-Biphenyl]-4-yl)-2-(2-hydroxyphenyl)oxazole-4-carboxamide] | 19.4 | 30.2 | 62.2 | 0
O=C(NCc1ccc(-c2ccccc2)cc1)c1coc(-c2ccccc2O)n1 [Example 6, N-([1,1′-Biphenyl]-4-ylmethyl)-2-(2-hydroxyphenyl)oxazole-4-carboxamide] | 1.4 | 40.1 | 61.4 | 9.2
O=C(NCc1cccc2ccccc12)c1coc(-c2ccccc2O)n1 [Example 7, 2-(2-Hydroxyphenyl)-N-(naphthalen-1-ylmethyl)oxazole-4-carboxamide] | 3.8 | 32.3 | 47.8 | 3.2
O=C(NCCc1c[nH]c2ccccc12)c1coc(-c2ccccc2O)n1 [Example 8, N-(2-(1H-Indol-3-yl)ethyl)-2-(2-hydroxyphenyl)oxazole-4-carboxamide] | 3.8 | 18.9 | 41.7 | 0
O=C(NCCCCN1C(=O)c2ccccc2C1=O)c1coc(-c2ccccc2O)n1 [Example 9, N-(4-(1,3-Dioxoisoindolin-2-yl)butyl)-2-(2-hydroxyphenyl)oxazole-4-carboxamide] | 1.1 | 11.0 | 35.2 | 10.3
O=C(O)c1ccc(CNC(=O)c2coc(-c3ccccc3O)n2)cc1 [Example 14, 4-((2-(2-Hydroxyphenyl)oxazole-4-carboxamido)methyl)benzoic acid] | 9.3 | 39.7 | 70.1 | 12.6
O=C(Nc1ccccc1)c1ccc(CNC(=O)c2coc(-c3ccccc3O)n2)cc1 [Example 15, 2-(2-Hydroxyphenyl)-N-(4-(phenylcarbamoyl)benzyl)oxazole-4-carboxamide] | 9.9 | 15.8 | 47 | 0
O=C(CNC(=O)c1coc(-c2ccccc2O)n1)Nc1ccccc1 [Example 16, 2-(2-Hydroxyphenyl)-N-(2-oxo-2-(phenylamino)ethyl)oxazole-4-carboxamide] | 0 | 36.9 | 25.5 | 12.5

The remaining lines, values ahead:

HDAC 7 inhibitory activity (Recombinant human HDAC7) [%] | HDAC 3 inhibitory activity [1] [%] | HDAC 1 inhibitory activity (Recombinant human HDAC1) [%] | HDAC 5 inhibitory activity (Recombinant human HDAC5) [%] | Compound
9.2 | 37.8 | 68.0 | 14.9 | O=C(NC(c1ccccc1)c1ccccc1)c1coc(-c2ccccc2O)n1 [Example 2, N-Benzhydryl-2-(2-hydroxyphenyl)oxazole-4-carboxamide]
4.1 | 23.7 | 43.9 | 0 | O=C(NCC(c1ccccc1)c1ccccc1)c1coc(-c2ccccc2O)n1 [Example 3, N-(2,2-Diphenylethyl)-2-(2-hydroxyphenyl)oxazole-4-carboxamide]
0.7 | 37.5 | 35.9 | 11.3 | O=C(NCCC(c1ccccc1)c1ccccc1)c1coc(-c2ccccc2O)n1 [Example 4, N-(3,3-Diphenylpropyl)-2-(2-hydroxyphenyl)oxazole-4-carboxamide]
2.2 | 4.0 | 27.2 | 1.4 | O=C(NCCCCNC(=O)C(c1ccccc1)c1ccccc1)c1coc(-c2ccccc2O)n1 [Example 10, N-(4-(2,2-Diphenylacetamido)butyl)-2-(2-hydroxyphenyl)oxazole-4-carboxamide]
21.9 | 3.7 | 43.3 | 43.5 | O=C(NCCCCNC(=S)NCCC(c1ccccc1)c1ccccc1)c1coc(-c2ccccc2O)n1 [Example 11, N-(4-(3-(3,3-Diphenylpropyl)thioureido)butyl)-2-(2-hydroxyphenyl)oxazole-4-carboxamide]
0 | 18.1 | 32.2 | 6.9 | O=C(NCCCCNCCC(c1ccccc1)c1ccccc1)c1coc(-c2ccccc2O)n1 [Example 12, N-(4-((3,3-Diphenylpropyl)amino)butyl)-2-(2-hydroxyphenyl)oxazole-4-carboxamide hydrochloride]
